We go through 9 compounds from ChEMBL document CHEMBL1201862, “PubChem BioAssay data set” (2004).

Test systems include ACHN; HCT-15; HT-29; K562; KM12; LOX IMVI; MOLT-4; NCI-H23; OVCAR-8; RXF 393; SF-295; SF-539; SK-MEL-2; UACC-257; UACC-62; A498; COLO 205; SNB-75.
Experiment in all cases: growth of human tumour cells (NCI), 48 h

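Growth conditions: 96-well plates. Treatment: test compound, 48 hours, 5 concentrations. Analysis: linear interpolation between bracketing concentrations; unreached endpoints set to highest concentration. GI50 = concentration required for 50% inhibition of growth.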 The source made the active and inactive calls. Rule as the data show it: active = GI50 up to about 1.1 µM and inactive = higher. Some results are limits rather than exact numbers.

With `COc1ccc(/C=C(\C(C)=O)C(=O)Nc2ccccc2)cc1`, the GI50 is > 100 µM (inactive) with ACHN; above 100 µM with HCT-15; > 100 µM (inactive) in the test on HT-29; > 100 µM (inactive) with K562; > 100 µM (inactive) in the test on KM12; > 100 µM (inactive) in the test on LOX IMVI. Also, the GI50 in the test on MOLT-4, in the test with NCI-H23, in the test with OVCAR-8, with RXF 393, with SF-295 and with SF-539 was > 100 µM (inactive) in each case. Also, the GI50 with SK-MEL-2, with UACC-257 and in the test on UACC-62 was > 100 µM (inactive) in each case.

As to `O=C(Nc1c(Cl)cc([N+](=O)[O-])cc1Cl)C(=O)C(C(=O)c1ccncc1)C1OC(=O)c2ccccc21` (stereo unspecified), the GI50 was > 100 µM (inactive) in the test on A498; > 100 µM (inactive) in the test on ACHN; > 100 µM (inactive) in the test with COLO 205; above 100 µM with HCT-15; > 100 µM (inactive) in the test with HT-29; > 100 µM (inactive) in the test on K562. Also, the GI50 with KM12, in the test on LOX IMVI, in the test with MOLT-4, in the test with NCI-H23, in the test with OVCAR-8 and in the test with RXF 393 was > 100 µM (inactive) in each case. Further, the GI50 was > 100 µM (inactive) in the test on SF-295, 35 µM (inactive) in the test with SNB-75, > 100 µM (inactive) in the test with UACC-257 and > 100 µM (inactive) with UACC-62.

For `COC(=O)c1ccccc1N(C(=O)c1ccccc1)c1ccccc1C`, the GI50 with A498 was 27.5 µM (inactive); in the test on ACHN, 53.6 µM (inactive); in the test on COLO 205 it was 26 µM (inactive); in the test on HCT-15, 38.5 µM; in the test with HT-29, 39.4 µM (inactive); in the test on K562, 41.1 µM (inactive). In addition, the GI50 was 32.7 µM (inactive) with KM12; 48.1 µM (inactive) with LOX IMVI; 22.4 µM (inactive) in the test on MOLT-4; 32.1 µM (inactive) in the test on NCI-H23; 37.5 µM (inactive) in the test with OVCAR-8; 30.7 µM (inactive) in the test on RXF 393. For the same compound, the GI50 with SF-295 is 44.2 µM (inactive); in the test with SK-MEL-2, 45 µM (inactive); in the test with SNB-75, > 100 µM (inactive); in the test on UACC-257 it was 39.2 µM (inactive); in the test with UACC-62, 93.8 µM (inactive).

With `CCOC(=O)Nc1ccc(S(=O)(=O)OC)cc1.CCOC(=O)Nc1ccc(S(=O)(=O)OC)cc1.NNC(=O)c1ccncc1`, the GI50 is > 50 µM (inactive) in the test on A498; > 50 µM (inactive) in the test on ACHN; > 50 µM (inactive) in the test on COLO 205; above 50 µM in the test on HCT-15; 44.7 µM (inactive) with HT-29; 40.2 µM (inactive) in the test with K562. For the same compound, the GI50 in the test on KM12, in the test on LOX IMVI, in the test with MOLT-4, in the test on NCI-H23, in the test with OVCAR-8 and with SF-295 was > 50 µM (inactive) each time. Moreover, the GI50 in the test on SF-539, with SK-MEL-2, in the test with SNB-75, with UACC-257 and in the test on UACC-62 was > 50 µM (inactive) each time.

For the compound `CCn1c(C)nn2c(=O)c3ccccc3nc2c1=O`, the GI50 with A498 is > 100 µM (inactive); in the test with ACHN, > 100 µM (inactive); in the test on COLO 205, > 100 µM (inactive); in the test on HCT-15, above 100 µM; in the test with HT-29 it was > 100 µM (inactive); in the test on K562, > 100 µM (inactive). Moreover, the GI50 with KM12, with LOX IMVI, in the test with MOLT-4, in the test with NCI-H23, with OVCAR-8 and in the test with SF-295 was > 100 µM (inactive) throughout. Besides, the GI50 in the test with SF-539, with SK-MEL-2, with SNB-75, with UACC-257 and in the test on UACC-62 was > 100 µM (inactive) throughout.

Turning to `O=C(/C=C1\NC(=O)c2ccccc2N1)c1ccncc1`, the GI50 was > 100 µM (inactive) in the test with A498; > 100 µM (inactive) in the test on ACHN; > 100 µM (inactive) in the test with COLO 205; above 100 µM in the test on HCT-15; > 100 µM (inactive) with HT-29; > 100 µM (inactive) in the test with K562. For the same compound, the GI50 in the test on MOLT-4 is > 100 µM (inactive); in the test with NCI-H23, > 100 µM (inactive); in the test on OVCAR-8, > 100 µM (inactive); in the test with SF-295, > 100 µM (inactive); in the test with SK-MEL-2 it was > 100 µM (inactive); with SNB-75 it was 45.9 µM (inactive). Further, the GI50 in the test with UACC-257 and in the test with UACC-62 was > 100 µM (inactive) in each case.

For `CN(C)c1ccc(C2CC(=O)C(C#N)=C(c3ccccc3)NN2C)cc1` (stereo unspecified), the GI50 with A498 was 27.6 µM (inactive); in the test on ACHN, 11.4 µM (inactive); in the test with HCT-15 it was 4.33 µM; in the test on HT-29, 5.14 µM (inactive); in the test on KM12 it was 6.04 µM (inactive); in the test with LOX IMVI it was 4.93 µM (inactive). Moreover, the GI50 is 8.47 µM (inactive) in the test on MOLT-4; 32.4 µM (inactive) with NCI-H23; 25.2 µM (inactive) in the test on RXF 393; 4.2 µM (inactive) in the test on SF-295; 6.05 µM (inactive) with SK-MEL-2; 2.05 µM (inactive) in the test with SNB-75. For the same compound, the GI50 with UACC-257 is 6.76 µM (inactive).

`CC(C)c1ccc(O)c(Cc2cc(C(C)C)cc(Cc3cc(C(C)C)ccc3O)c2O)c1`: the GI50 in the test with A498 is 1.46 µM (inactive); in the test on ACHN it was 3.56 µM (inactive); in the test with COLO 205, 3.32 µM (inactive); with HCT-15 it was 1.7 µM; in the test with HT-29 it was 2.25 µM (inactive); in the test with K562, 2.23 µM (inactive). Besides, the GI50 in the test with KM12 was 1.97 µM (inactive); in the test on MOLT-4, 1.78 µM (inactive); in the test on NCI-H23, 1.7 µM (inactive); in the test with OVCAR-8, 2.09 µM (inactive); with SF-295, 1.88 µM (inactive); in the test on SK-MEL-2, 1.61 µM (inactive). The GI50 in the test on SNB-75 was 2.16 µM (inactive); with UACC-257 it was 1.71 µM (inactive); with UACC-62 it was 2.38 µM (inactive).

For the compound `CC1=NN(c2ccccc2)C(=O)C1/N=N/c1ccc(Br)cc1C` (stereo unspecified), the GI50 with A498 was 57 µM (inactive); with ACHN it was 37.3 µM (inactive); in the test on COLO 205, > 100 µM (inactive); in the test on HCT-15, above 100 µM; in the test with HT-29, > 100 µM (inactive); with K562, > 100 µM (inactive). Moreover, the GI50 with KM12 was > 100 µM (inactive); in the test with MOLT-4 it was > 100 µM (inactive); with NCI-H23 it was 38 µM (inactive); in the test on OVCAR-8, 95.9 µM (inactive); in the test with RXF 393, 50.5 µM (inactive); with SF-295, 72.8 µM (inactive). For the same compound, the GI50 was 58.9 µM (inactive) with SF-539; 56.6 µM (inactive) in the test on SK-MEL-2; 19.1 µM (inactive) in the test on SNB-75; > 100 µM (inactive) in the test on UACC-257; > 100 µM (inactive) in the test with UACC-62.
